Laboratory results: patent US5747500A, “Antiviral 2, 4-pyrimidinedione derivatives” (priority 1993, dated 1998)
Values after ≈ are worked out from the molar mass of the structure shown.

Key:
[1] = test system: HIV; experiment: inhibition of HIV-induced cytopathic effect in MT-4 cells (MTT method); assay type: cell-based; details: for EC50: Human immunodeficiency virus 1, MT4, HIV-infected MT-4 cells, 1000 CCID50, 4 or 5 day incubation at 37° C., MTT method, read-out: ED50: Effective concentration for the inhibition of the proliferation of HIV by 50%; for S.I.: Selectivity index (CD50/ED50): ratio CD50/ED50, MT-4 cells
Procedure: The anti-HIV assays were based on the inhibition of the virus-induced cytopathic effect in MT-4 cells as described in J. Virol. Methods, 16, 171 (1987). Briefly, MT-4 cells were suspended in culture medium at 2.5×10^5 cells/ml and infected with 1000 CCID50 (50% cell culture infective dose) of HIV. Immediately, after virus infection, 100 μl of the cell suspension was brought into each well of a flat-bottomedmicrotiter tray containing various concentrations of the test compounds. After a 4 or 5 day incubation at 37° C., the number of viable cells was determined by the 3-(4,5-dimethylthiazol-2-yl)-2,5-diphenyltetrazoliumbromide (MTT) method, as disclosed in J. Virol. Methods, 20, 309 (1988).
ED50 : Effective concentration for the inhibition of the
proliferation of HIV by 50%

[2] = cytotoxicity: viability of mock-infected MT-4 host cells (MTT method); assay type: cell-based; details: human, mt-4 cells, read-out: CD50: Cytotoxic concentration that causes death of cells by 50%
Procedure: The cytotoxicity of the compounds of the present invention was assessed in parallel with their antiviral activity. It was based on the viability of mock-infected host cells as determined by the MTT methods (se J. Virol. Methods, 20, 309 (1988)).
CD50 : Cytotoxic concentration that causes death of cells by 50%

Row | Compound | EC50 [1] [µg/mL] | S.I.: Selectivity index (CD50/ED50) [1] | CC50 [2] [µg/mL]
1 | CCc1c(Cc2cc(C)cc(C)c2)n(CC=C(C)C)c(=O)[nH]c1=O [Example 36, 1-(3-methyl-2-butenyl)-5-ethyl-6-(3,5-dimethylbenzyl)-2,4-pyrimidinedione] | < 0.33 | 66 | 22.1 (≈ 67.6 µM)
2 | CCc1c(Cc2cc(C)cc(C)c2)n(C/C=C/C(=O)OC)c(=O)[nH]c1=O [Example 37] | 1.64 (≈ 4.6 µM) | 7.6 | 12.5 (≈ 35 µM)
3 | Cc1cc(C)cc(Cc2c(C(C)C)c(=O)[nH]c(=O)n2C/C=C/c2ccccc2)c1 [Example 6, 1-(trans-cinnamyl)-5-isopropyl-6-(3,5-dimethylbenzyl)-2,4-pyrimidinedione] | < 0.009 | > 892 | 8.03 (≈ 20.7 µM)
4 | COC(=O)/C=C/Cn1c(Oc2cc(C)cc(C)c2)c(C(C)C)c(=O)[nH]c1=O [Example 66] | < 0.32 | > 245 | 78.6 (≈ 211 µM)
5 | CC#CCn1c(Sc2cc(C)cc(C)c2)c(CC)c(=O)[nH]c1=O [Example 25, 1-(2-butynyl)-5-ethyl-6-(3,5-dimethylphenylthio)-2,4-pyrimidinedione] | < 0.69 | > 90 | 62.5 (≈ 190 µM)
6 | C=CCn1c(Cc2ccccc2)c(CC)c(=O)[nH]c1=O [Example 4, 1-allyl-5-ethyl-6-benzyl-2,4-pyrimidinedione] | < 0.32 | > 164 | 52.5 (≈ 194 µM)
7 | Cc1cc(C)cc(Oc2c(C(C)C)c(=O)[nH]c(=O)n2CC#Cc2ccccc2)c1 [Example 67, 1-(3-phenyl-2-propynyl)-5-isopropyl-6-(3,5-dimethylphenoxy)-2,4-pyrimidinedione] | < 0.009 | > 844 | 7.6 (≈ 19.6 µM)
8 | COC(=O)/C=C/Cn1c(Sc2cc(C)cc(C)c2)c(C(C)C)c(=O)[nH]c1=O [Example 30] | < 0.009 | > 1,966 | 17.7 (≈ 45.6 µM)
9 | CCc1c(C(=O)c2cc(C)cc(C)c2)n(CC#Cc2ccccc2)c(=O)[nH]c1=O [Example 50, 1-(3-phenyl-2-propynyl)-5-ethyl-6-(3,5-dimethylbenzoyl)-2,4-pyrimidinedione] | < 0.009 | > 482 | 4.34 (≈ 11.2 µM)
10 | CCc1c(Oc2cc(C)cc(C)c2)n(CC#Cc2ccccc2)c(=O)[nH]c1=O [Example 61, 1-(3-phenyl-2-propynyl)-5-ethyl-6-(3,5-dimethylphenoxy)-2,4-pyrimidinedione] | < 0.009 | > 1,033 | 9.3 (≈ 24.8 µM)
11 | C/C=C/Cn1c(Sc2cc(C)cc(C)c2)c(C(C)C)c(=O)[nH]c1=O [Example 27] | < 0.009 | > 740 | 6.66 (≈ 19.3 µM)
12 | CCc1c(C(=O)c2cc(C)cc(C)c2)n(C/C=C/COC)c(=O)[nH]c1=O [Example 82, 1-(4-methoxy-trans-2-butenyl)-5-ethyl-6-(3,5-dimethylbenzoyl)-2,4-pyrimidinedione] | < 0.32 | > 134 | 43.1 (≈ 121 µM)
13 | CC/C=C/Cn1c(Sc2cc(C)cc(C)c2)c(CC)c(=O)[nH]c1=O [Example 2, 1-(trans-2-pentenyl)-5-ethyl-6-(3,5-dimethylphenylthio)-2,4-pyrimidinedione] | < 0.32 | > 29 | 8.73 (≈ 25.3 µM)
14 | CC#CCn1c(Oc2cc(C)cc(C)c2)c(C(C)C)c(=O)[nH]c1=O [Example 11, 1-(2-butynyl)-5-isopropyl-6-(3,5-dimethylphenoxy)-2,4-pyrimidinedione] | < 0.32 | > 124 | 39.9 (≈ 122 µM)
15 | CC#CCn1c(C(=O)c2cc(C)cc(C)c2)c(CC)c(=O)[nH]c1=O [Example 49, 1-(2-butynyl)-5-ethyl-6-(3,5-dimethylbenzoyl)-2,4-pyrimidinedione] | < 0.032 | > 162 | 5.2 (≈ 16 µM)
16 | CC/C=C/Cn1c(Sc2cc(C)cc(C)c2)c(C(C)C)c(=O)[nH]c1=O [Example 28] | < 0.009 | > 643 | 5.79 (≈ 16.2 µM)
17 | CCOC/C=C\Cn1c(Sc2ccccc2)c(CC)c(=O)[nH]c1=O [Example 16] | 2.78 (≈ 8.02 µM) | 6.85 | 19 (≈ 54.9 µM)
18 | C#CCn1c(Sc2cc(C)cc(C)c2)c(CC)c(=O)[nH]c1=O [Example 24, 1-propargyl-5-ethyl-6-(3,5-dimethylphenylthio)-2,4-pyrimidinedione] | < 0.032 | > 56 | 1.81 (≈ 5.76 µM)
19 | C/C=C/Cn1c(Oc2cc(C)cc(C)c2)c(CC)c(=O)[nH]c1=O [Example 10, 1-(trans-2-butenyl)-5-ethyl-6-(3,5-dimethylphenoxy)-2,4-pyrimidinedione] | < 0.01 | > 1,939 | 19.4 (≈ 61.7 µM)

Row | Compound | EC50 [1] [µg/mL] | S.I.: Selectivity index (CD50/ED50) [1] | CC50 [2] [µg/mL]
20 | Cc1cc(C)cc(Sc2c(C(C)C)c(=O)[nH]c(=O)n2CC#Cc2ccccc2)c1 [Example 3, 1-(3-phenyl-2-propynyl)-5-isopropyl-6-(3,5-dimethylphenylthio)-2,4-pyrimidinedione] | < 0.009 | > 882 | 7.94 (≈ 19.6 µM)
21 | CCc1c(Sc2cc(C)cc(C)c2)n(CC=CC(=O)O)c(=O)[nH]c1=O [Example 77, 1-(carboxyallyl)-5-ethyl-6-(3,5-dimethylphenylthio)-2,4-pyrimidinedione] | < 0.902 | > 75 | 68.3 (≈ 190 µM)
22 | C/C=C/Cn1c(Cc2ccccc2)c(CC)c(=O)[nH]c1=O [Example 32] | < 0.32 | > 101 | 32.4 (≈ 114 µM)
23 | CC/C=C/Cn1c(C(=O)c2cc(C)cc(C)c2)c(C(C)C)c(=O)[nH]c1=O [Example 53] | < 0.009 | > 665 | 5.99 (≈ 16.9 µM)
24 | CCc1c(Sc2cc(C)cc(C)c2)n(COCc2ccccc2)c(=O)[nH]c1=O [Ref. 2, 1benzyloxymethyl-5-ethyl-6-(3,5-dimethylphenylthio)-2,4-pyrimidinedione, reference compound] | < 0.009 | > 672 | 6.05 (≈ 15.3 µM)
25 | C/C=C\Cn1c(Oc2cc(C)cc(C)c2)c(C(C)C)c(=O)[nH]c1=O [Example 71, 1-(cis-2-butenyl)-5-isopropyl-6-(3,5-dimethylphenoxy)-2,4-pyrimidinedione] | < 0.0155 | > 497 | 7.71 (≈ 23.5 µM)
26 | CCc1c(Sc2cc(C)cc(C)c2)n(C/C=C/C(=O)OC)c(=O)[nH]c1=O [Example 21] | < 0.32 | > 129 | 41.4 (≈ 111 µM)
27 | CC/C=C/Cn1c(C(=O)c2cc(C)cc(C)c2)c(CC)c(=O)[nH]c1=O [Example 46] | < 0.009 | > 1,015 | 9.14 (≈ 26.8 µM)
28 | C/C=C/Cn1c(Cc2cc(C)cc(C)c2)c(C(C)C)c(=O)[nH]c1=O [Example 41] | 0.01 (≈ 0.0306 µM) | > 2,104 | 21 (≈ 64.5 µM)
29 | CCc1c(Sc2ccccc2)n(C/C=C\COCc2ccccc2)c(=O)[nH]c1=O [Example 17] | 3.68 (≈ 9.01 µM) | 1.57 | 5.79 (≈ 14.2 µM)
30 | C/C=C/Cn1c(C(=O)c2cc(C)cc(C)c2)c(C(C)C)c(=O)[nH]c1=O [Example 51] | < 0.01 | > 2,473 | 22.3 (≈ 65.4 µM)
31 | Cc1cc(C)cc(C(=O)c2c(C(C)C)c(=O)[nH]c(=O)n2C/C=C/c2ccccc2)c1 [Example 52] | < 0.009 | > 1,083 | 9.75 (≈ 24.2 µM)
32 | CCc1c(Sc2cc(C)cc(C)c2)n(C/C=C/CCl)c(=O)[nH]c1=O [Example 22] | < 0.36 | > 93 | 33.8 (≈ 92.6 µM)
33 | Cc1cc(C)cc(C(=O)c2c(C(C)C)c(=O)[nH]c(=O)n2CC#Cc2ccccc2)c1 [Example 56, 1-(3-phenyl-2-propynyl)-5-isopropyl-6-(3,5-dimethylbenzoyl)-2,4-pyrimidinedione] | < 0.009 | > 75.1 | 6.76 (≈ 16.9 µM)
34 | C=CCn1c(Sc2ccccc2)c(CC)c(=O)[nH]c1=O [Example 12, 1-allyl-5-ethyl-6-phenylthio-2,4-pyrimidinedione] | < 0.32 | > 54 | 17.5 (≈ 60.6 µM)
35 | CCc1c(C(=O)c2cc(C)cc(C)c2)n(C/C=C/COC(C)=O)c(=O)[nH]c1=O [Example 80, 1-(4-acetoxy-trans-2-butenyl)-5-ethyl-6-(3,5-dimethylbenzoyl)-2,4-pyrimidinedione] | < 0.033 | > 1,345 | 44.4 (≈ 115 µM)
36 | C#CCn1c(Oc2cc(C)cc(C)c2)c(CC)c(=O)[nH]c1=O [Example 60, 1-propargyl-5-ethyl-6-(3,5-dimethylphenoxy)-2,4-pyrimidinedione] | < 0.62 | > 25 | 15.8 (≈ 52.8 µM)
37 | Cc1cc(C)cc(Cc2c(C(C)C)c(=O)[nH]c(=O)n2CC#Cc2ccccc2)c1 [Example 42, 1-(3-phenyl-2-propynyl)-5-isopropyl-6-(3,5-dimethylbenzyl)-2,4-pyrimidinedione] | < 0.009 | > 824 | 7.42 (≈ 19.2 µM)
